From patent publication US20230048888A1, “USE OF TRIAZOLOTRIAZINE DERIVATIVE IN TREATMENT OF DISEASES” (ZHEJIANG VIMGREEN PHARMACEUTICALS, LTD., priority 2019, published 2023)
Blank lines part the entries; values can stand above or below the compound they belong to.

Key:
[1] = system: reserpine-induced dyskinesia; experiment: Mouse reserpine-induced dyskinesia model (Laboras spontaneous activity); format: in vivo, CD1 mice
Excerpt: Reserpine is an indole alkaloid drug, which can inhibit the reuptake of noradrenergic neuron terminals to lead to slowed movement or incompetence, thereby inducing clinical symptoms similar to those of the Parkinson's disease. Its mechanism is as follows: the reserpine can block the transport of irreversible monoamines such as DA, 5-hydroxytryptamine (5-HT) and norepinephrine (NA) in vesicles, such that the monoamines are degraded in cells to consume central and peripheral monoamines, and rapidly reduce the level of monoamines, resulting in dyskinesias and other Parkinson's disease-like symptoms. An A2A receptor antagonist was administered to evaluate if the compound under test can ameliorate the dyskinesia of the mice. The evaluation indicators include walking distance, walking time, number of standings and standing time. […] The total number of actually used animals was 90. The animals were purchased from Charles River Laboratories in Beijing (Animal Certificate Number: 1100112011009984) and raised in the animal house of ChemPartner in Shanghai (Experimental Animal License: SYXK (Shanghai) 2017-0018). The animal house has an SPF environment. On the first day of the test, a single subcutaneous injection of 0.1% acetic acid or 0.6 mg/kg reserpine was performed based on the pre-set grouping and time points. After the injection, the animals were put back to rearing cages and pushed back to the original rearing room. The activity test was carried out on the second day of the test, and before the test, the Laboras system needed to be calibrated in advance to make it in a normal working state. […] The mice were put into an independent Laboras test box 50 minutes after the administration, and the Laboras behavior recording system was started up after 10 minutes of adaptation. The current moment is the 1st hour after the last administration for the animals, and the animals were recorded continuously for 60 minutes. After the test was completed, the Laboras behavior system automatically analyzed the walking distance (m), walking time (sec), the number of standings and standing time (sec) of the mice at 0-30 min, 30-60 min, 0-60 min and every 10 min. All measurement data were represented as mean±standard error of mean (mean±SEM), and check analysis was performed by Prism 8.0 statistical software.

[2] = target: T1, Human adenosine ADORA3 receptor membrane protein (Homo sapiens, UniProt P0DMS8); experiment: Radioisotope ligand competitive binding, ADORA3 ([3H] HEMADO); conditions: ADORA3 (IC50, nM, n = 3), binding test
T1 construct: purchased PerkinElmer ES-012-M400UA
T1 sequence (P0DMS8 1-318): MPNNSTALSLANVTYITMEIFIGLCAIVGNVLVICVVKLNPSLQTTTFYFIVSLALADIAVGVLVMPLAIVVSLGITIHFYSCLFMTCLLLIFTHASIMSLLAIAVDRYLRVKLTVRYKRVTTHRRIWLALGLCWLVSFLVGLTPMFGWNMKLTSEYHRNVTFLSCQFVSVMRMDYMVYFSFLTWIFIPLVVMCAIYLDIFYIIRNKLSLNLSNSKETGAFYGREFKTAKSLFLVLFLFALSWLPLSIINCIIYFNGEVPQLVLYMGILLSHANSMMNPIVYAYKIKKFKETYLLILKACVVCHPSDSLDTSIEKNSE
Description: ADORA3: 25 mM HEPES pH 7.4, 10 mM MgCl2, 1 mM CaCl2, 0.5% BSA
4) Preparation of compounds: the test compounds and the reference compounds were separately diluted with 100% DMSO. For the test compounds, the initial concentration was 10 μM, with double secondary wells; 4-fold gradient dilution was carried out at 10 points; and the final working concentration was 0.038 nM-10 μM (for the second and third detection of the test compound against an ADORA2A target, the initial concentration was 2 μM, with double secondary wells, 4-fold gradient dilution was carried out at 10 points, and the final working concentration was 0.0076 nM-2 μM). For the ADORA1, ADORA2A, ADORA2B, and ADORA3 reference compounds, the initial concentration was 1 μM, with double secondary wells, 4-fold gradient dilution was carried out at 10 points, and the final working concentration was 0.0038 nM-1 μM.
1 μL of a sample to be tested and 1 μL of a reference compound were added to a 96-well plate in sequence. […] 100 μL of cells and 100 μL of isotopes were added to all experimental wells. The 96-well plate was sealed; ADORA1, ADORA2B, and ADORA3 were incubated for 1 hour on a shaker (300 rpm) at room temperature (22° C.); and ADORA2A was incubated for 2 hours on a shaker (300 rpm) at room temperature (22° C.). At the same time, a GF/C filter plate was soaked with ADORA1, ADORA2A, ADORA2B, and ADORA3 by using 0.3% PEI for at least 30 minutes at room temperature, at 50 μL/well. After the incubation was completed, the incubated reaction system was collected onto the GF/C filter plate with a Harvester, washed 4 times and then dried for 0.5 hours in an oven at 50° C. The bottom of the dried GF/C filter plate was sealed with a film, 50 μL of scintillation solution was added to each well, which was then sealed with a Top-seal-A film. With Microbeta readings, the data was analyzed by GraphPad Prism 5.0.
% Inhibition=100×(1−(Sample_raw value−Low control_Average)/(High control_Average−Low control_Average))
The data was fitted with “log(inhibitor) vs response-variable slope” in GraphPad Prism 5.0 to obtain IC50.

[3] = 3 mg/kg intragastric, 30-60 min
[4] = 10 mg/kg intragastric, 0-30 min
[5] = 10 mg/kg intragastric, 0-60 min
[6] = 10 mg/kg intragastric, 30-60 min
[7] = 30 mg/kg intragastric, 0-30 min
[8] = 30 mg/kg intragastric, 0-60 min
[9] = 30 mg/kg intragastric, 30-60 min

Structure (SMILES): CC(=O)O.Nc1nc(NCCc2ccc(NC3COC3)cc2)nc2nc(-c3ccco3)nn12 [Acetate of Compound 22, 2-(furan-2-yl)-N5-(4-(oxetane-3-ylamino)phenethyl)-[1,2,4]triazolo[1,5-a][1,3,5]triazine-5,7-diamine acetate]
Number of standings ([1]; 3 mg/kg intragastric, 0-30 min): 36.7 ± 5.9
Walking distance ([1]; 3 mg/kg intragastric, 0-30 min): 4.3 ± 0.7 m
Walking time ([1]; 3 mg/kg intragastric, 0-30 min): 77.8 ± 11.0 s
Number of standings ([1]; 3 mg/kg intragastric, 0-60 min): 49.6 ± 12.2
Walking distance ([1]; 3 mg/kg intragastric, 0-60 min): 6.9 ± 2.1 m
Walking time ([1]; 3 mg/kg intragastric, 0-60 min): 108.5 ± 23.0 s
Number of standings [1, 3]: 12.9 ± 6.8
Walking distance [1, 3]: 2.6 ± 1.6 m
Walking time [1, 3]: 30.7 ± 13.9 s
Number of standings [1, 4]: 75.6 ± 8
Walking distance [1, 4]: 10.7 ± 1.0 m
Walking time [1, 4]: 160.5 ± 10.8 s
Number of standings [1, 5]: 116 ± 15.7
Walking distance [1, 5]: 19.2 ± 2.9 m
Walking time [1, 5]: 245.4 ± 29.1 s
Number of standings [1, 6]: 40.3 ± 11.4
Walking distance [1, 6]: 8.5 ± 2.3 m
Walking time [1, 6]: 84.9 ± 22.4 s
Number of standings [1, 7]: 98.7 ± 12.6
Walking distance [1, 7]: 11.3 ± 1.1 m
Walking time [1, 7]: 175.6 ± 12.4 s
Number of standings [1, 8]: 178 ± 20.9
Walking distance [1, 8]: 27.1 ± 2.5 m
Walking time [1, 8]: 311.0 ± 22.3 s
Number of standings [1, 9]: 79.4 ± 10.1
Walking distance [1, 9]: 15.9 ± 1.9 m
Walking time [1, 9]: 135.4 ± 12.8 s

Structure (SMILES): Nc1nc(NCCc2ccc(NC3COC3)cc2)nc2nc(-c3ccco3)nn12 [Compound 22, 2-(furan-2-yl)-N5-(4-(oxetan-3-ylamino)phenethyl)-[1,2,4]triazolo[1,5-a][1,3,5]triazine-5,7-diamine]
IC50 ([2]; Table 10 (IC50)): 872 ± 492 nM
IC50 ([2]; Table 11): 703 nM

IC50 ([2]; Table 10 (IC50)): 2000 ± 1030 nM
IC50 ([2]; Table 11): 1610 nM
Structure (SMILES): Cn1nnc(-c2ccc(CCNc3nc(N)n4nc(-c5ccco5)nc4n3)cc2)n1 [Compound 40, N5-(4-(2-methyl-2H-tetrazol-5-yl)phenethyl)-2-(furan-2-yl)-[1,2,4]triazolo[1,5-a][1,3,5]triazine-5,7-diamine]

Structure (SMILES): CCn1c(=O)c2c(nc(/C=C/c3ccc(OC)c(OC)c3)n2C)n(CC)c1=O [Istradefylline, reference compound]
Number of standings [1, 4]: 94.3 ± 11.1
Walking distance [1, 4]: 11.9 ± 1.4 m
Walking time [1, 4]: 177.5 ± 16.0 s
Number of standings [1, 5]: 165 ± 20
Walking distance [1, 5]: 23.7 ± 3.2 m
Walking time [1, 5]: 298.3 ± 28.4 s
Number of standings [1, 6]: 70.6 ± 10.6
Walking distance [1, 6]: 11.8 ± 2.0 m
Walking time [1, 6]: 120.8 ± 16.0 s
